Assay results as given in ChEMBL document CHEMBL5649167, “The SUV4-20 inhibitor A-196 verifies a role for epigenetics in genomic integrity” (Nat Chem Biol, 2017).
The source made the active and inactive calls. The calls are words filed in the database; no cut-off is given here.

What was measured:
[1] = species: Homo sapiens; assay: Inhibition of human SKCa channel at 10 uM relative to control
[2] = target: Alpha-1A adrenergic receptor (Homo sapiens) (UniProt P35348); assay: Inhibition of human Alpha-1A adrenergic receptor at 10 uM relative to control
Alpha-1A adrenergic receptor (Homo sapiens), sequence (P35348 whole entry): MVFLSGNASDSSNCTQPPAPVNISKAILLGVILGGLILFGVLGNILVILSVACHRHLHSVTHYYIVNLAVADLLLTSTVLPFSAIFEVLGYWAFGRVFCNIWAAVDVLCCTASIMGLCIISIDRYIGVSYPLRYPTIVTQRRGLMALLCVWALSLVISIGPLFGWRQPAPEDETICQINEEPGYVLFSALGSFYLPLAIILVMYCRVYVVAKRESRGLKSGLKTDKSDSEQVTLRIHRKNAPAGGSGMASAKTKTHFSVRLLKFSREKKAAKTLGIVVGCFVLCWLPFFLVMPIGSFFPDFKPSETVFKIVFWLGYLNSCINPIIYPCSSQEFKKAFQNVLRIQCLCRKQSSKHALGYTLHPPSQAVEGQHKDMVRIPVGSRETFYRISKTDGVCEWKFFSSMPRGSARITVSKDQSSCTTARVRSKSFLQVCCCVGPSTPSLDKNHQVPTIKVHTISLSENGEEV

[3] = target: Muscarinic acetylcholine receptor M5 (Homo sapiens) (UniProt P08912); assay: Inhibition of human Muscarinic acetylcholine receptor M5 expressed in stable Cricetulus griseus CHO cells at 10 uM relative to control; format: cell-based
[4] = target: Vasoactive intestinal polypeptide receptor 1 (Homo sapiens) (UniProt P32241); assay: Inhibition of human VPAC1 at 10 uM relative to control
Vasoactive intestinal polypeptide receptor 1 (Homo sapiens), sequence (P32241 whole entry): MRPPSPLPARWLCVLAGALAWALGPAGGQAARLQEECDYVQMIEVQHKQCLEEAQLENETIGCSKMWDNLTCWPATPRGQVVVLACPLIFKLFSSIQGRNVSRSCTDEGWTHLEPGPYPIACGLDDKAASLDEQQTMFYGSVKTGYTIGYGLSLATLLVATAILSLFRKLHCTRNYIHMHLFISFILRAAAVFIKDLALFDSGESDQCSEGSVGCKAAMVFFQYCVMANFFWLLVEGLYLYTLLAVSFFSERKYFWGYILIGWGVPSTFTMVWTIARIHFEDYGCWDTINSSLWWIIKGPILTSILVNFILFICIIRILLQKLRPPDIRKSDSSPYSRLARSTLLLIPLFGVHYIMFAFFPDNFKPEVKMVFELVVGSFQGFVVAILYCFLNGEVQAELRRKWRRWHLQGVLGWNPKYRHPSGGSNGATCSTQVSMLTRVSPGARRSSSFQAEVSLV

[5] = tested on: U2OS; assay: Inhibition of H4K20me1 in human U2OS cells assessed as change in methylation level at 10 uM incubated for 48 hrs by Western blotting analysis; format: functional, cell-based
[6] = target: D(3) dopamine receptor (Homo sapiens) (UniProt P35462); assay: Inhibition of human D(3) dopamine receptor expressed in HEK293T cells at 10 uM relative to control; format: cell-based
D(3) dopamine receptor (Homo sapiens), sequence (P35462 whole entry): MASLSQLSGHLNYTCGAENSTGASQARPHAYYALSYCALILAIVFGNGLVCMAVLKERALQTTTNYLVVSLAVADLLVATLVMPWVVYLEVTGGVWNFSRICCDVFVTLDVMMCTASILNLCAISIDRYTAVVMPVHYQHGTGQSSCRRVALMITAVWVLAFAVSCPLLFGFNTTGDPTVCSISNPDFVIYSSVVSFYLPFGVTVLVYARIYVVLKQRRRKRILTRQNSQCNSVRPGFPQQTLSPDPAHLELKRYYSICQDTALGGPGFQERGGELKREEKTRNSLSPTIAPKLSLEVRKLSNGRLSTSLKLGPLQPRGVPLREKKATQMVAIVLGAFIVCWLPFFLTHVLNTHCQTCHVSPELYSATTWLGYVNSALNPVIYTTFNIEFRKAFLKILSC

[7] = tested on: Embryonic stem cell; assay: Antiproliferative activity against mouse Embryonic stem cell assessed as reduction in H4K20me3 at 10 uM incubated for 3 days by immunofluorescence analysis; format: functional, cell-based; conditions: time 3.0 day
[8] = species: Homo sapiens; assay: Inhibition of human GABA-gated Cl- channel at 10 uM relative to control
[9] = target: 5-hydroxytryptamine receptor 1E (Homo sapiens) (UniProt P28566); assay: Inhibition of human 5-ht1e in stable HEK cells at 10 uM relative to control; format: cell-based
[10] = target: 5-hydroxytryptamine receptor 1B (Homo sapiens) (UniProt P28222); assay: Inhibition of human 5-HT1B expressed in stable HEK cells at 10 uM relative to control; format: cell-based
5-hydroxytryptamine receptor 1B (Homo sapiens), sequence (P28222 whole entry): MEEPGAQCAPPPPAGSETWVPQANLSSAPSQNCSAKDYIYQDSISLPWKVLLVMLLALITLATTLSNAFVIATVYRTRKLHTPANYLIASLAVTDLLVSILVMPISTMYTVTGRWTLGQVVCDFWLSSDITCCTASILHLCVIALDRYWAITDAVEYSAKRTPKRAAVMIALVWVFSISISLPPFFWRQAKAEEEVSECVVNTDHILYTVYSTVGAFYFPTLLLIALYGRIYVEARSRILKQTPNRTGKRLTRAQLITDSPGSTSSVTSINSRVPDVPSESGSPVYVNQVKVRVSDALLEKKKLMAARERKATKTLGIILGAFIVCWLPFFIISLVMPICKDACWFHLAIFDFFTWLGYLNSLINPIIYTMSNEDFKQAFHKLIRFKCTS

[11] = target: Adenosine receptor A3 (Homo sapiens) (UniProt P0DMS8); assay: Inhibition of human Adenosine receptor A3 at 10 uM relative to control
Adenosine receptor A3 (Homo sapiens), sequence (P0DMS8 whole entry): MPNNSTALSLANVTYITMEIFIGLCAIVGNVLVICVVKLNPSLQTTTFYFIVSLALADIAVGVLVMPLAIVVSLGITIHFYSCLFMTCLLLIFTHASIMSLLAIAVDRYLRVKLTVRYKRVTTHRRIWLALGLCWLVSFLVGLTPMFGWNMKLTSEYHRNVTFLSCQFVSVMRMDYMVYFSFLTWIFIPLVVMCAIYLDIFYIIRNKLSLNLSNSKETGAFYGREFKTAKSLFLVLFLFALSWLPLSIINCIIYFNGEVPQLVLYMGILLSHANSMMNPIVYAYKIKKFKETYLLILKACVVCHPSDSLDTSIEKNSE

[12] = target: 5-hydroxytryptamine receptor 1D (Homo sapiens) (UniProt P28221); assay: Inhibition of human 5-HT1D expressed in HEK293T cells at 10 uM relative to control; format: cell-based
5-hydroxytryptamine receptor 1D (Homo sapiens), sequence (P28221 whole entry): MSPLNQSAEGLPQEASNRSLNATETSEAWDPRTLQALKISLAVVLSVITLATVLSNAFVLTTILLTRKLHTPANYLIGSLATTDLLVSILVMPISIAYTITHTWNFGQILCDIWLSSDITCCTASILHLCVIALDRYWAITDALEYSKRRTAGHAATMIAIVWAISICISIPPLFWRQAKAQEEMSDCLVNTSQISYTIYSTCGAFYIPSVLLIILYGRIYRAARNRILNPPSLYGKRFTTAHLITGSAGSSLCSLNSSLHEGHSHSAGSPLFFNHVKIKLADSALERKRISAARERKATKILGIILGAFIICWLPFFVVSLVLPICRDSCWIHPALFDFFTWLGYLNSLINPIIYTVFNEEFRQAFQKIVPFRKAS

[13] = target: Histamine H4 receptor (Homo sapiens) (UniProt Q9H3N8); assay: Inhibition of human Histamine H4 receptor expressed in HEK293T cells at 10 uM relative to control; format: cell-based
[14] = target: Histamine H1 receptor (Homo sapiens) (UniProt P35367); assay: Inhibition of human HH1R at 10 uM relative to control
Histamine H1 receptor (Homo sapiens), sequence (P35367 whole entry): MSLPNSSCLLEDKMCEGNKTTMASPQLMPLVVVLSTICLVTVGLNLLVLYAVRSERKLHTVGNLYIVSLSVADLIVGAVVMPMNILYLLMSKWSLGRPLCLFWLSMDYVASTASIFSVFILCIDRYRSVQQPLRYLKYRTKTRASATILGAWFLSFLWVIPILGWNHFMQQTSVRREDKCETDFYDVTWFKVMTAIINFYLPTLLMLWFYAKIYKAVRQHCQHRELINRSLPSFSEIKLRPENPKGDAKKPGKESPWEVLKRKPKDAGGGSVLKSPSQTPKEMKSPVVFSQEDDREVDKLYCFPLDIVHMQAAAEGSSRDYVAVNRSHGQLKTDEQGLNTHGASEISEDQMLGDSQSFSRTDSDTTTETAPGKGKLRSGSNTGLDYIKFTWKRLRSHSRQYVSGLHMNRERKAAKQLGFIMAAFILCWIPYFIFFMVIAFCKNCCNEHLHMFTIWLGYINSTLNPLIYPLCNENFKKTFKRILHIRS

[15] = tested on: U2OS; assay: Inhibition of H4K20me3 in human U2OS cells assessed as change in methylation level at 10 uM incubated for 48 hrs by Western blotting analysis; format: functional, cell-based
[16] = target: Substance-K receptor (Homo sapiens) (UniProt P21452); assay: Inhibition of human Substance-K receptor at 10 uM relative to control
Substance-K receptor (Homo sapiens), sequence (P21452 whole entry): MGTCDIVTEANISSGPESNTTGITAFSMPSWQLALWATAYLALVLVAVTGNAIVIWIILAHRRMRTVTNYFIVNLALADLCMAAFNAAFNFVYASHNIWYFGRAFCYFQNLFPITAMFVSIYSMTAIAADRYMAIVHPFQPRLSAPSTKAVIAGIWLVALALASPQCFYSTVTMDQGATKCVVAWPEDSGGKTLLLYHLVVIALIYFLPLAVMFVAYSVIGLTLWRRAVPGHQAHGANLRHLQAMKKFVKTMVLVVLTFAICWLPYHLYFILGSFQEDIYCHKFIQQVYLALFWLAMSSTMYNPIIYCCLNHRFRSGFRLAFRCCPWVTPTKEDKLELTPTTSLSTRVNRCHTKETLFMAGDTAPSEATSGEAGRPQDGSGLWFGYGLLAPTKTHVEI

[17] = target: T1, 5-hydroxytryptamine receptor 1A (Homo sapiens) (UniProt P08908); assay: Inhibition of human 5-HT1A receptor expressed in stable […] cells at 10 uM relative to control; format: cell-based; conditions: HEK293T
T1 sequence (whole entry): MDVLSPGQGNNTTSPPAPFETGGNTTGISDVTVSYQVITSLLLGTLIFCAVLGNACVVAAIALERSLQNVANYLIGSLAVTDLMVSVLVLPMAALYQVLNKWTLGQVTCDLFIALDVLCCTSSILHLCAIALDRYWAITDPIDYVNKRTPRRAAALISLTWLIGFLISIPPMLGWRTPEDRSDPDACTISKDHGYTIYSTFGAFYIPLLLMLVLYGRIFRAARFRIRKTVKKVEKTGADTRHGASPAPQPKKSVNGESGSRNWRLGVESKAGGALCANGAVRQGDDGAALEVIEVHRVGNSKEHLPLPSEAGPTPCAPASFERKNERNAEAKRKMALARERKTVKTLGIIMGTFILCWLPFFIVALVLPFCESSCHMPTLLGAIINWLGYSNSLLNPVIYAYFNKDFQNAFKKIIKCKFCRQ

[18] = species: Rattus norvegicus; assay: Inhibition of Rat Somatostatin at 10 uM relative to control
[19] = target: Neuromedin-K receptor (Homo sapiens) (UniProt P29371); assay: Inhibition of human Neuromedin-K receptor at 10 uM relative to control
Neuromedin-K receptor (Homo sapiens), sequence (P29371 whole entry): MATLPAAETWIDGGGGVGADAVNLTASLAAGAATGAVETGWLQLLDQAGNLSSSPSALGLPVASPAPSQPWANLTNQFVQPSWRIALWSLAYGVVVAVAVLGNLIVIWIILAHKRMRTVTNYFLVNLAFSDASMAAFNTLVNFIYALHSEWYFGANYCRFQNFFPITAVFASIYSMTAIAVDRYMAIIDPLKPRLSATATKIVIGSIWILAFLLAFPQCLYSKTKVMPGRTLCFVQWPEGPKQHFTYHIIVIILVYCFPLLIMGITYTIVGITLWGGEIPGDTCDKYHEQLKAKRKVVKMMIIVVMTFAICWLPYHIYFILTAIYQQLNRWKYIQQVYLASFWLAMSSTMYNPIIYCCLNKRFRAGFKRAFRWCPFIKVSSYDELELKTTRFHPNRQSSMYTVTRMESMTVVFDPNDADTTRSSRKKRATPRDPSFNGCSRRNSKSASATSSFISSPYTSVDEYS

[20] = target: Beta-2 adrenergic receptor (Homo sapiens) (UniProt P07550); assay: Inhibition of human Beta-2 adrenergic receptor expressed in human Flp-In-293 cells at 10 uM relative to control; format: cell-based
Beta-2 adrenergic receptor (Homo sapiens), sequence (P07550 whole entry, looked up): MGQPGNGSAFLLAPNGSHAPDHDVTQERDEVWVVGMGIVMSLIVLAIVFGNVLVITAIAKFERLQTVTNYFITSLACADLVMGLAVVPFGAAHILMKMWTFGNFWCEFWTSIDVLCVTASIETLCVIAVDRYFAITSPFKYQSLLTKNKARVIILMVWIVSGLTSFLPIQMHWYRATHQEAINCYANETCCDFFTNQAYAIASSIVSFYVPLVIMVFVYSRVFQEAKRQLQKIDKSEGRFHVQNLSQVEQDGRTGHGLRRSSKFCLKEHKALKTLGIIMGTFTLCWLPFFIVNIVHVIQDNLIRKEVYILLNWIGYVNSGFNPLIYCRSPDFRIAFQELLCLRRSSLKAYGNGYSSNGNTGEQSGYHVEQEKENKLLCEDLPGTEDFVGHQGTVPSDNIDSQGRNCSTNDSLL

[21] = target: C-C chemokine receptor type 1 (Homo sapiens) (UniProt P32246); assay: Inhibition of human C-C chemokine receptor type 1 at 10 uM relative to control
C-C chemokine receptor type 1 (Homo sapiens), sequence (P32246 whole entry): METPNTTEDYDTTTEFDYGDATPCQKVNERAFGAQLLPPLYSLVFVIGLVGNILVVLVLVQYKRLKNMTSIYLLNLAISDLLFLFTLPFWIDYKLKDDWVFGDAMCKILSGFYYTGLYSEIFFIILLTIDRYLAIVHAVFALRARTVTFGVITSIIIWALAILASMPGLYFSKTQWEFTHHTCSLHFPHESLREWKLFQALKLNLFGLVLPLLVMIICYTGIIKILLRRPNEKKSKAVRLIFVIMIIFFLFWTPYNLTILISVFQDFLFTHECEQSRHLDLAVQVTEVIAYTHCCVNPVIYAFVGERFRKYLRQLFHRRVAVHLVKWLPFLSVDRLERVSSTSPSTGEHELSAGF

[22] = target: Melatonin receptor type 1A (Homo sapiens) (UniProt P48039); assay: Inhibition of human Melatonin receptor type 1A at 10 uM relative to control
Melatonin receptor type 1A (Homo sapiens), sequence (P48039 whole entry): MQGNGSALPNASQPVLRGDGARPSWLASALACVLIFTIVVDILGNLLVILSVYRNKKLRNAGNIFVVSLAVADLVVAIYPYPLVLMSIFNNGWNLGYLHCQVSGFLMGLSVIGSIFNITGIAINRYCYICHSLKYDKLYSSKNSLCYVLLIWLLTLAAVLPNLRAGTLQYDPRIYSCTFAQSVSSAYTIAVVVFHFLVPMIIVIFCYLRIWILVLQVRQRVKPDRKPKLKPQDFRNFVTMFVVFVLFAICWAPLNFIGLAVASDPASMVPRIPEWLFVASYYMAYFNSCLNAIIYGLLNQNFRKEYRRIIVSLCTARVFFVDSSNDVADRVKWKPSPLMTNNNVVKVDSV

[23] = target: Serine/threonine-protein kinase pim-2 (Homo sapiens) (UniProt Q9P1W9); assay: Inhibition of human Pim2 at 10 uM relative to control
[24] = target: Histone-lysine N-methyltransferase SMYD3 (Homo sapiens) (UniProt Q9H7B4); assay: Inhibition of SMYD3 (unknown origin) using Biotin-tagged H4K20me1 and [3H-SAM] as substrate at 1 to 10 uM incubated for 2 hrs by scintillation proximity assay; conditions: dose 1-10 µM
[25] = target: Histone-lysine N-methyltransferase SETDB1 (Homo sapiens) (UniProt Q15047); assay: Inhibition of SETDB1 (unknown origin) using Biotin-tagged H4K20me1 and [3H-SAM] as substrate at 1 to 10 uM incubated for 2 hrs by scintillation proximity assay; conditions: dose 1-10 µM
[26] = tested on: HL-60; assay: Cytotoxicity against human HL-60 cells assessed as cell viability upto 12.5 uM incubated for 48 hrs; format: functional, cell-based
[27] = tested on: HeLa; assay: Antiproliferative activity against human HeLa cells assessed as inhibition in H4K20me2 expression level 21 doublings by Western blot analysis; format: functional, cell-based
[28] = target: Sodium-dependent dopamine transporter (Homo sapiens) (UniProt Q01959); assay: Inhibition of human DAT in stable HEK cells at 10 uM relative to control; format: cell-based
[29] = target: 5-hydroxytryptamine receptor 1B (Homo sapiens) (UniProt P28222); assay: Inhibition of human 5-hydroxytryptamine receptor 1B at 10 uM relative to control
[30] = target: Epidermal growth factor receptor (Homo sapiens) (UniProt P00533); assay: Inhibition of human EGFR at 10 uM relative to control
[31] = target: Histone-lysine N-methyltransferase ASH1L (Homo sapiens) (UniProt Q9NR48); assay: Inhibition of ASH1L (unknown origin) at 1 to 10 uM incubated for 1 hrs by scintillation proximity assay; conditions: dose 1-10 µM
[32] = target: Histone-lysine N-methyltransferase, H3 lysine-79 specific (Homo sapiens) (UniProt Q8TEK3); assay: Inhibition of DOT1L (unknown origin) at 1 to 10 uM incubated for 1 hrs by scintillation proximity assay; conditions: dose 1-10 µM
[33] = target: Histone-lysine N-methyltransferase PRDM9 (Homo sapiens) (UniProt Q9NQV7); assay: Inhibition of PRDM9 (unknown origin) using Biotin-tagged H4K20me1 and [3H-SAM] as substrate at 1 to 10 uM incubated for 2 hrs by scintillation proximity assay; conditions: dose 1-10 µM

SMILES: O=C(c1nnc(NC2CCCC2)c2cc(Cl)c(Cl)cc12)N1CCC(O)CC1
- inhibition [1]: -5%
- inhibition [2]: -9%
- inhibition [3]: -4%
- inhibition [4]: -4%
- Activity [5]: inactive
- inhibition [6]: 0%
- Activity [7]: inactive
- inhibition [8]: 17%
- inhibition [9]: 10%
- inhibition [10]: 5%
- inhibition [11]: 27%
- inhibition [12]: 1%
- inhibition [13]: -3%
- inhibition [14]: 3%
- Activity [15]: inactive
- inhibition [16]: 53%
- inhibition [17]: 12%
- inhibition [18]: 5%
- inhibition [19]: 11%
- inhibition [20]: 17%
- inhibition [21]: -3%
- inhibition [22]: 17%

SMILES: Clc1cc2c(NC3CCCC3)nnc(-c3ccncc3)c2cc1Cl
- inhibition [1]: 3%
- inhibition [23]: -3%
- inhibition [2]: -3%
- inhibition [24]: inactive
- inhibition [3]: -1%
- inhibition [4]: -5%
- inhibition [25]: inactive
- inhibition [6]: 1%
- Activity [7]: Active
- inhibition [8]: 90%
- inhibition [10]: 4%
- inhibition [11]: 74%
- Activity [26]: Active
- Activity [27]: Active
- inhibition [12]: -8%
- inhibition [13]: -6%
- inhibition [14]: 1%
- inhibition [28]: -4%
- inhibition [29]: 20%
- inhibition [30]: -4%
- inhibition [31]: inactive
- inhibition [16]: 61%
- inhibition [17]: 6%
- inhibition [32]: inactive
- inhibition [33]: inactive
- inhibition [18]: 2%
- inhibition [19]: 26%
- inhibition [20]: 20%
- inhibition [21]: 16%
- inhibition [22]: 34%
